# Data reported in patent publication US4454137A, “Feed compositions containing copper salts of 2-hydroxypyridine-N-oxides” (SmithKline Beckman Corporation, priority 1982, dated 1984).
# “And” between values parts separate entries of the source, which are not always exact repeats. Identical values can stand only once. Like-named read-outs stand apart in the source and are kept apart here.
# How the values were obtained:
# inoculum (ileal) = experiment: In vitro swine procedure, ileal inoculum incubation (VFA, lysine, glucose, L-lactic acid); parameters: species or system swine (Yorkshire barrow)
# [1] = W. Barker et al., J. Antibiotics 32 1096 (1979); cited from earlier work
# inoculum (cecal) = experiment: In vitro swine procedure, cecal inoculum incubation (VFA, lysine, glucose, L-lactic acid); parameters: species or system swine (Yorkshire barrow)
# post weanling pigs [2] = experiment: Post weanling pig feeding test, corn based pre-starter feed (Example 6); type: in vivo; details: 10 ppm; corn ration
# Source text: Each replication contained 8 treatment groups in turn comprising 2 pigs per pen.
# post weanling pigs [3] = experiment: Pig feeding test, corn and rye diets (Example 7); type: in vivo; details: 10 ppm
# Procedure: Each replication contained 8 treatment groups in turn comprising 2 pigs per pen. The experiment was run similar to that of Example 6 except another control having a rye diet was added.
# [4] = ileal, 167 ppm, positive control of run 1(a), DMSO series (carrier not given)
compound,measurement,setting,value
"O=[N+]([O-])c1ccc([O-])[n+]([O-])c1.O=[N+]([O-])c1ccc([O-])[n+]([O-])c1.[Cu+2] [5-Nitro-2-hydroxypyridine-N--oxide, Cu^++]",LYS (lysine),inoculum (ileal),109
same,GLU (glucose),"inoculum (ileal); ileal, 167 ppm",110 % of blank control values and 104 % of blank control values
same,LAC (L-lactic acid),"inoculum (ileal); ileal, 167 ppm",160 % of blank control values and 106 % of blank control values
same,LYS (lysine),"inoculum (ileal); ileal, 167 ppm",159 % of blank control values
same,VFA (total of volatile fatty acids),"inoculum (ileal); ileal, 167 ppm",47 % of blank control values and 48 % of blank control values
O=S(=O)([O-])[O-].[Cu+2] [Copper sulfate],GLU (glucose),"inoculum (ileal); ileal, 3.3 ppm",109 % of blank control values
same,LAC (L-lactic acid),"inoculum (ileal); ileal, 3.3 ppm",113 % of blank control values
same,LYS (lysine),"inoculum (ileal); ileal, 3.3 ppm",107 % of blank control values
same,VFA (total of volatile fatty acids),"inoculum (ileal); ileal, 3.3 ppm",99 % of blank control values
same,GLU (glucose),"inoculum (ileal); ileal, 33.3 ppm",98 % of blank control values
same,LAC (L-lactic acid),"inoculum (ileal); ileal, 33.3 ppm",104 % of blank control values
same,VFA (total of volatile fatty acids),"inoculum (ileal); ileal, 33.3 ppm",99 % of blank control values
same,GLU (glucose),"inoculum (ileal); ileal, 333.33 ppm",113 % of blank control values
same,LAC (L-lactic acid),"inoculum (ileal); ileal, 333.33 ppm",137 % of blank control values
same,LYS (lysine),"inoculum (ileal); ileal, 333.33 ppm",107 % of blank control values
same,VFA (total of volatile fatty acids),"inoculum (ileal); ileal, 333.33 ppm",47 % of blank control values
COc1ccc(=O)n([O-])c1C.COc1ccc(=O)n([O-])c1C.[Cu+2] [copper salt of 2-hydroxy-5-methoxy-6-methylpyridine-N-oxide],antimicrobial activity relative to iron salt and ligand parent,[1],less antimicrobial activity than does either the corresponding iron salt or the ligand parent
virginiamycin,GLU (glucose),"inoculum (ileal); ileal, 167 ppm",133 % of blank control values
same,LAC (L-lactic acid),"inoculum (ileal); ileal, 167 ppm",29 % of blank control values
same,LYS (lysine),"inoculum (ileal); ileal, 167 ppm",134 % of blank control values
same,GLU (glucose),inoculum (ileal); [4],101 % of blank control values
same,LAC (L-lactic acid),inoculum (ileal); [4],16 % of blank control values
same,LYS (lysine),inoculum (ileal); [4],167 % of blank control values
same,VFA (total of volatile fatty acids),inoculum (ileal); [4],14 % of blank control values
same,VFA (total of volatile fatty acids),inoculum (cecal),94
same,GLU (glucose),"inoculum (cecal); cecal, 0.17 ppm",30 % of blank control values
same,LYS (lysine),"inoculum (cecal); cecal, 0.17 ppm",71 % of blank control values
same,GLU (glucose),"inoculum (cecal); cecal, 1.67 ppm",72 % of blank control values
same,LYS (lysine),"inoculum (cecal); cecal, 1.67 ppm",74 % of blank control values
same,VFA (total of volatile fatty acids),"inoculum (cecal); cecal, 1.67 ppm",100 % of blank control values
same,GLU (glucose),"inoculum (cecal); cecal, 16.67 ppm",524 % of blank control values
same,LAC (L-lactic acid),"inoculum (cecal); cecal, 16.67 ppm",35 % of blank control values
same,LYS (lysine),"inoculum (cecal); cecal, 16.67 ppm",107 % of blank control values
same,VFA (total of volatile fatty acids),"inoculum (cecal); cecal, 16.67 ppm",83 % of blank control values
same,GLU (glucose),"inoculum (cecal); cecal, 167 ppm",732 % of blank control values
same,LAC (L-lactic acid),"inoculum (cecal); cecal, 167 ppm",49 % of blank control values
same,LYS (lysine),"inoculum (cecal); cecal, 167 ppm",172 % of blank control values
same,VFA (total of volatile fatty acids),"inoculum (cecal); cecal, 167 ppm",89 % of blank control values
same,Average daily gain (0-21 days),post weanling pigs [2],.667
same,Feed/gain,post weanling pigs [2],2.56
same,"Feed/gain, percent in parentheses (control 100%)",post weanling pigs [2],97.4%
same,"Average Daily Gain, 0-23 days",post weanling pigs [3]; Vm + Cont. (corn diet),0.582 kg
same,"Average Daily Gain, 0-23 days",post weanling pigs [3]; Vm + Rye (rye diet),0.529 kg
